# Measurements: ChEMBL document CHEMBL4732090, “Preparation of new 1,3-dibenzyl tetrahydropyridinylidene ammonium salts and their antimicrobial and anticellular activities” (Eur J Med Chem, 2021)
# Columns and labels:
# Plasmodium falciparum [1] = experiment: Antiplasmodial activity against chloroquine and pyrimethamine resistant Plasmodium falciparum K1 strain; type: functional, organism-based
# [2] = Selectivity index, ratio of IC50 for rat L6 cells to IC50 for Trypanosoma brucei rhodesiense STIB900; type: toxicity; conditions: read-out: Ratio IC50
# [3] = tested on: Staphylococcus epidermidis; experiment: Antibacterial activity against Staphylococcus epidermis ATCC 12228 assessed as diameter of inhibition zone at 10 mg/ml by disk diffusion assay; type: functional; conditions: read-out: DIZ
# [4] = Selectivity index, ratio of IC50 for rat L6 cells to IC50 for Plasmodium falciparum NF54; type: toxicity; conditions: read-out: Ratio IC50
# Staphylococcus aureus = experiment: Antibacterial activity against Staphylococcus aureus ATCC 29213 assessed as diameter of inhibition zone at 10 mg/ml by disk diffusion assay; type: functional; conditions: read-out: DIZ
# [5] = tested on: Trypanosoma brucei rhodesiense; experiment: Trypanocidal activity against Trypanosoma brucei rhodesiense STIB900 incubated for 70 hrs by Alamar blue assay; type: functional, organism-based; conditions: STIB900, 70 h
# Escherichia coli = experiment: Antibacterial activity against Escherichia coli ATCC 25922 assessed as diameter of inhibition zone at 10 mg/ml by disk diffusion assay; type: functional; conditions: read-out: DIZ
# L6 = experiment: Cytotoxicity against rat L6 cells after 70 hrs by Alamar blue assay; type: cell-based; conditions: L6, 70 h, read-out: IC50
# Plasmodium falciparum [6] = experiment: Antiplasmodial activity against Plasmodium falciparum NF54 erythrocytic stages assessed as reduction in [3H]hypoxanthine incorporation measured after 48 hrs by liquid scintillation counting method; type: functional, organism-based
# Candida albicans = experiment: Antifungal activity against Candida albicans ATCC 90028 assessed as diameter of inhibition zone at 10 mg/ml by disk diffusion assay; type: functional; conditions: read-out: DIZ
# [7] = Selectivity index, ratio of IC50 for rat L6 cells to IC50 for chloroquine and pyrimethamine resistant Plasmodium falciparum K1; type: toxicity; conditions: read-out: Ratio IC50
# HCT-116 = experiment: Cytotoxicity against human HCT-116 cells assessed as inhibition of cell growth at 50 uM after 72 hrs by XTT assay relative to control; type: functional
# Pseudomonas aeruginosa = experiment: Antibacterial activity against Pseudomonas aeruginosa ATCC 27853 assessed as diameter of inhibition zone at 10 mg/ml by disk diffusion assay; type: functional; conditions: read-out: DIZ
# U-251 = experiment: Cytotoxicity against human U-251 cells assessed as inhibition of cell growth at 50 uM after 72 hrs by XTT assay relative to control; type: functional
Compound,IC50 (Plasmodium falciparum [1]),selectivity ratio [2],zone of inhibition at 10000 µg/mL [3],selectivity ratio [4],zone of inhibition at 10000 µg/mL (Staphylococcus aureus),IC50 [5],zone of inhibition at 10000 µg/mL (Escherichia coli),IC50 (L6),IC50 (Plasmodium falciparum [6]),zone of inhibition at 10000 µg/mL (Candida albicans),selectivity ratio [7],inhibition at 50 µM (HCT-116),zone of inhibition at 10000 µg/mL (Pseudomonas aeruginosa),inhibition at 50 µM (U-251)
CC1(C)C(Cc2ccc(C(F)(F)F)cc2)C(=[N+]2CCCC2)C=CN1Cc1ccc(C(F)(F)F)cc1 (racemic),3.1 nM,62.9,31 mm,3180,22 mm,420 nM,15 mm,26400 nM,8.3 nM,25 mm,8520,100%,7 mm,100%
CC1(C)C(Cc2ccc(Cl)cc2)C(=[N+]2CCCCC2)C=CN1Cc1ccc(Cl)cc1 (racemic),0.38 nM,79.3,28 mm,2920,22 mm,140 nM,14 mm,11100 nM,3.8 nM,26 mm,29200,100%,7 mm,100%
